From publication PMC9741652, “CRL2^ZER1/ZYG11B recognizes small N-terminal residues for degradation” (Nature Communications, 2022) come the findings set out here.

No end group written: not given here. Where only a bound is given, the exact number is not on record here.

The target of assay [1] is T1, ZYG11B (residues 490–728) (Homo sapiens, UniProt Q9C0D3).
T1 construct: ZYG11B (residues 490–728) bearing an N-terminal SELF; 8xHis-SUMO (N, cleaved yes); made in house; host or cells: E. coli BL21 (DE3)
Put plainly: ITC of peptides titrated into ZYG11B. Conditions: ZYG11B residues 490–728, 20 mM Tris-HCl pH 7.5, 150 mM NaCl, 16 °C, repeated at least twice, NB = no detectable binding. The source says:
(§1) To further investigate the binding specificity of ZER1 and ZYG11B, we synthesized a set of eight-residue peptides (sequence: XFLHVGQD, X = any free Nt-residue), and carried out isothermal titration calorimetry (ITC) assays to quantify their binding affinities for ZER1 and ZYG11B. […] The rest of Nt-residues were disallowed for the binding to both ZER1 and ZYG11B (Fig. 1e, and Supplementary Fig. 1c–f).
(§2) ZYG11B (residues 490–728) bearing an N-terminal SELF generated by a modified pET28-MKH8SUMO (Addgene Plasmid #79526) vector and ZER1 (residues 469–766) bearing an N-terminal MEEL sequence generated by pNIC-CH (Addgene Plasmid #26117) vector were used to perform isothermal titration calorimetry (ITC) assays, as previously described. Proteins (concentration 50–70 μM) and peptides (concentration 0.5–1.5 mM) solutions were prepared in an ITC buffer consisting of 20 mM Tris-HCl (pH 7.5) and 150 mM NaCl. The ITC measurements were recorded at 16 °C with a MicroCal PEAQ-ITC instrument (Malvern Panalytical). 1.5 μL of each peptide (except for first injection using 0.5 μL peptide) was titrated into a 300 μL cell of the protein with 120 s incubation time between the injections. The reference power was controlled at […]. The acquired data were analyzed using MicroCal PEAQ-ITC Analysis Software version 1.30. Each experiment was repeated at least twice independently with similar results.

Assay [2] concerns the target T2, ZER1 D556A (residues 469–766) (Homo sapiens, UniProt Q7Z7L7, D556A).
T2 construct: wild-type (WT) and mutant ZER1 (residues 469–766) titrated with SFLHVGQD peptide; made in house; host or cells: E. coli BL21 (DE3)
Put plainly: ITC of peptides with mutant ZER1 D556A. The settings on record: mutant ZER1 residues 469–766. The assay is classed as binding.
Source text: (§3) To verify the functional importance of the residues involved in substrate binding, we generated single-point mutants of the binding pocket residues in ZER1 and ZYG11B. […] In addition, mutating the third-residue-interacting N553 into alanine caused a significant reduction in substrate binding (Fig. 3e, and Supplementary Fig. 4a–c).
as §2

In assay [3] the target is T3, ZER1 N597A (residues 469–766) (Homo sapiens, UniProt Q7Z7L7, N597A).
T3 construct: wild-type (WT) and mutant ZER1 (residues 469–766) titrated with SFLHVGQD peptide; made in house; host or cells: E. coli BL21 (DE3)
Put plainly: ITC of peptides with mutant ZER1 N597A. Conditions: mutant ZER1 residues 469–766, NB = no detectable binding.
Source text: as §3, §2

Assay [4] addresses T4, ZER1 W552A (residues 469–766) (Homo sapiens, UniProt Q7Z7L7, W552A).
T4 construct: wild-type (WT) and mutant ZER1 (residues 469–766) titrated with SFLHVGQD peptide; made in house; host or cells: E. coli BL21 (DE3)
Put plainly: ITC of peptides with mutant ZER1 W552A. The settings on record: mutant ZER1 residues 469–766, NB = no detectable binding.
Source text: as §3, §2

Assay [5] addresses T5, ZER1 E600A (residues 469–766) (Homo sapiens, UniProt Q7Z7L7, E600A).
T5 construct: wild-type (WT) and mutant ZER1 (residues 469–766) titrated with SFLHVGQD peptide; made in house; host or cells: E. coli BL21 (DE3)
Put plainly: ITC of peptides with mutant ZER1 E600A. The assay is classed as binding. Conditions: mutant ZER1 residues 469–766.
Source text: as §3, §2

For another assay, the target named is T6, ZER1 (residues 469–766) (Homo sapiens, UniProt Q7Z7L7).
T6 construct: made in house; host or cells: E. coli BL21 (DE3)
Put plainly: ITC of peptides titrated into ZER1. The assay is classed as binding. The settings on record: wild-type ZER1 residues 469–766.
Source text: as §1, §2

T6 sequence (Q7Z7L7 469-766): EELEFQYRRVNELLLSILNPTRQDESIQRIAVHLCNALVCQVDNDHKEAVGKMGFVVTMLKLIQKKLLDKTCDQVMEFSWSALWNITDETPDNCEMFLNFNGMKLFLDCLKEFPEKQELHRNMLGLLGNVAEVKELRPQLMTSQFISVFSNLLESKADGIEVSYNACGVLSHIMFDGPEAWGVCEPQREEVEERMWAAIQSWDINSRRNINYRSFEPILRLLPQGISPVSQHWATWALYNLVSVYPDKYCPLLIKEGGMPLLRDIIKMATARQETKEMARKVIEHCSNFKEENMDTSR
T4 sequence (Q7Z7L7 469-766 W552A): as the sequence (Q7Z7L7 469-766) above, with W84A counted along it
T3 sequence (Q7Z7L7 469-766 N597A): as the sequence (Q7Z7L7 469-766) above, with N129A counted along it
T5 sequence (Q7Z7L7 469-766 E600A): as the sequence (Q7Z7L7 469-766) above, with E132A counted along it
T1 sequence (Q9C0D3 490-728): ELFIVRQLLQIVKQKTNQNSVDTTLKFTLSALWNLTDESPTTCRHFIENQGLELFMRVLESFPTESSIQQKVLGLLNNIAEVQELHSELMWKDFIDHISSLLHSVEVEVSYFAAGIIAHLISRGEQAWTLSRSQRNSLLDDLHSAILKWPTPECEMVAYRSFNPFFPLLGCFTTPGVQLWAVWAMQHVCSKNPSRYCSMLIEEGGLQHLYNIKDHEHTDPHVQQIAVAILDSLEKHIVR
T2 sequence (Q7Z7L7 469-766 D556A): as the sequence (Q7Z7L7 469-766) above, with D88A counted along it

The Kd is a measure of binding affinity in units of concentration. Lower therefore signals tighter binding. Consider H-VFLHVGQD [VFLHVGQD], for which the Kd in assay [1] was > 100 µM.
On to SFLHVGQD [SFLHVGQD], for which the Kd in assay [2], in assay [3], in assay [4] and in assay [5] was > 100 µM in each case.
As to SGRGKQGGKA [H2A peptide], the “binding to ZER1, in words” value on ZER1 (residues 469–766) is reported as “readily bind”.
